Legend:
Yap1 mRNA [1] = assay: Yap1 mRNA in SCC25 cells, RNA analysis (Example 25); format: cell-based, human; conditions: free uptake, 48 hours, RTS4814, normalized to actin-beta
Procedure: (§1) Modified oligonucleotides described in the studies above were tested at various doses in squamous cell carcinoma cell SCC25. A control oligonucleotide 792169 (a 3-10-3 cET gapmer with a full phosphorothioate backbone, […], designated herein as SEQ ID No.: 2940; is not complementary to any known human gene) was also tested.
Cultured SCC25 cells at a density of 5,000 cells per well were treated using free uptake with modified oligonucleotides diluted to concentrations described in the tables below. After approximately 48 hours, Yap1 mRNA levels were measured as previously described using the Human Yap1 primer-probe set RTS4814. Yap1 mRNA levels were normalized to actin-beta content, as measured by primer probe set RTS5002 (forward sequence […], designated herein as SEQ ID NO.: 20; reverse sequence […], designated herein as SEQ ID NO.: 21; probe sequence […], designated herein as SEQ ID NO.: 22). Results are presented in the tables below as percent control of the amount of Yap1 mRNA relative to untreated control cells (% UTC).

SCC25 cells = assay: Cell proliferation assay in SCC25 cells, CellTiter-Glo (Example 25); format: cell-based, human; conditions: free uptake, 144 hours
Procedure: as §1
Cultured SCC25 cells at a density of 1,000 cells/well were treated using free uptake with modified oligonucleotides diluted to concentrations described in the tables below. After approximately 144 hours, cell proliferation was measured using the luminescent cell viability CellTiter-Glo® 2.0 Assay (Promega). Results are presented in the tables below as percent control of the amount of luminescence in samples treated with modified oligonucleotides relative to untreated control cells (% UTC).

Yap1 mRNA [2] = assay: Inhibition of human Yap1 mRNA in SNU449 hepatocellular carcinoma xenograft tumors (Example 26); format: in vivo; conditions: SNU449 xenografts in NSG mice, 50 mg/kg twice weekly for five days, relative to PBS treated animals
Method in brief: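 Female NSG mice bearing subcutaneous SNU449 xenografts (about 100 mm^3) dosed with modified oligonucleotides at 50 mg/kg twice weekly for five days, four per group. Tumour Yap1 mRNA measured by RT-qPCR, normalized to actin-beta, expressed as % of PBS-treated controls.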

[3] = Cynomolgus monkey tolerability, body and organ weight measurements (Example 34); format: in vivo; conditions: cynomolgus monkeys, 35 mg/kg subcutaneously; for Heart weight / Kidney weight / Liver with gallbladder weight / Spleen weight: necropsy; for Terminal Body Weight: prior to necropsy
Procedure: Cynomolgus monkeys were treated with Ionis modified oligonucleotides selected from studies described in the Examples above. Modified oligonucleotide tolerability was evaluated.
During the study period, the monkeys were observed twice daily for signs of illness or distress. Any animal experiencing more than momentary or slight pain or distress due to the treatment, injury or illness was treated by the veterinary staff with approved analgesics or agents to relieve the pain after consultation with the Study Director. Any animal in poor health or in a possible moribund condition was identified for further monitoring and possible euthanasia. Scheduled euthanasia of the animals was conducted on day 86 approximately 48 hours after the last dose by exsanguination while under deep anesthesia. The protocols described in the Example were approved by the Institutional Animal Care and Use Committee (IACUC).
To evaluate the effect of Ionis oligonucleotides on the overall health of the animals, body and organ weights were measured. Terminal body weight was measured prior to necropsy.

[4] = Cynomolgus monkey tolerability, hematology (Example 34); format: in vivo, cynomolgus monkeys; conditions: for BAS / EOS / HCT / HGB / LUC / LYM / MCH / MCHC / MCV / MON / NEU / PLT / RBC / RCDW / Retic / WBC: cynomolgus monkey, in vivo, sc, 35 mg/kg; for MPV: cynomolgus monkeys, 35 mg/kg subcutaneously, day 44
Procedure: To evaluate any effect of Ionis oligonucleotides in cynomolgus monkeys on hematologic parameters, blood samples of approximately 0.5 mL of blood was collected from each of the available study animals on day 44. The samples were collected in tubes containing K2-EDTA. Samples were analyzed for red blood cell (RBC) count, Hemoglobin (HGB), Hematocrit (HCT), Mean corpuscular volume (MCV), mean corpuscular hemoglobin (MCH), mean corpuscular hemoglobin concentration (MCHC), RBC Distribution Width (RCDW), reticulocyte count (Retic), platelet count (PLT), mean platelet volume (MPV), white blood cells (WBC) count, individual white blood cell counts, such as that of monocytes (MON), neutrophils (NEU), lymphocytes (LYM), eosinophils (EOS), basophils (BAS), and large unstained cells (LUC) using an ADVIA2120i hematology analyzer (Siemens, USA).

[5] = Cynomolgus monkey tolerability, kidney and liver function markers (Example 34); conditions: cynomolgus monkeys, 35 mg/kg subcutaneously, day 44

For “1198439 (AGTGTATGTCAGAAGA; sugar, 5-methylcytosine, phosphorothioate modifications, further chemistry not given here) [compound 1198439]”, the “Yap1 mRNA, % UTC” value (Yap1 mRNA [1]; 0.04 μM) was 35 % UTC, the “Yap1 mRNA, % UTC” value (Yap1 mRNA [1]; 0.2 μM) was 12 % UTC and the “Yap1 mRNA, % UTC” value (Yap1 mRNA [1]; 1 μM) was 5 % UTC. The “Yap1 mRNA, % UTC” value (Yap1 mRNA [1]; 5 μM) was 3 % UTC, the “cell proliferation (luminescence) % UTC” value (SCC25 cells; 0.04 μM) was 62 % UTC and the “cell proliferation (luminescence) % UTC” value (SCC25 cells; 0.2 μM) was 30 % UTC. For the same substance, the “cell proliferation (luminescence) % UTC” value (SCC25 cells; 1 μM) was 22 % UTC, the “cell proliferation (luminescence) % UTC” value (SCC25 cells; 5 μM) was 16 % UTC and the “Yap1 mRNA in tumors, % control” value (Yap1 mRNA [2]) was 51 % control. For the same substance, the Heart weight [3] was 10 g, the Kidney weight [3] was 15 g and the “Liver with gallbladder weight” value [3] was 67 g. The Spleen weight [3] was 3 g, the “Terminal Body Weight” value [3] was 2959 g and the BAS [4] was 0.3%. The EOS [4] was 1.5%, the HCT [4] was 48% and the HGB [4] was 14 g/dL. It also gave an LUC [4] of 0.6%, an LYM [4] of 68% and an MCH [4] of 22 pg. It also gave an MCHC [4] of 28 g/dL, an MCV [4] of 79 fL and an MON [4] of 2.9%. The NEU [4] was 27%, the PLT [4] was 367 10^3/μL and the RBC [4] was 6e+06 µL⁻¹. For the same substance, the RCDW [4] was 12%, the Retic [4] was 1.2% and the WBC [4] was 10300 µL⁻¹. The MPV [4] was 7.6 fL, the ALB [5] was 4.0 g/dL and the ALP [5] was 1298 IU/L. For the same substance, the ALT [5] was 40 IU/L, the AST [5] was 65 IU/L and the BUN [5] was 24 mg/dL. The CREA [5] was 0.9 mg/dL, the GGT [5] was 63 IU/L and the GLO [5] was 2.8 g/dL. The GLU [5] was 115 mg/dL, the HDL [5] was 82 mg/dL and the LDL [5] was 59 mg/dL. For the same substance, the TBIL [5] was 0.2 mg/dL, the TG [5] was 28 mg/dL and the TP [5] was 6.8 g/dL.
With “1198440 (AAGTGTATGTCAGAAG; cEt, 2'-MOE, 5-methylcytosine, phosphorothioate modifications, further chemistry not given here) [compound 1198440]” the “Yap1 mRNA, % UTC” value (Yap1 mRNA [1]; 0.04 μM) was 39 % UTC, the “Yap1 mRNA, % UTC” value (Yap1 mRNA [1]; 0.2 μM) was 14 % UTC and the “Yap1 mRNA, % UTC” value (Yap1 mRNA [1]; 1 μM) was 5 % UTC. For the same substance, the “Yap1 mRNA, % UTC” value (Yap1 mRNA [1]; 5 μM) was 3 % UTC, the “cell proliferation (luminescence) % UTC” value (SCC25 cells; 0.04 μM) was 73 % UTC and the “cell proliferation (luminescence) % UTC” value (SCC25 cells; 0.2 μM) was 33 % UTC. For the same substance, the “cell proliferation (luminescence) % UTC” value (SCC25 cells; 1 μM) was 22 % UTC, the “cell proliferation (luminescence) % UTC” value (SCC25 cells; 5 μM) was 16 % UTC and the “Yap1 mRNA in tumors, % control” value (Yap1 mRNA [2]) was 51 % control. The Heart weight [3] was 11 g, the Kidney weight [3] was 15 g and the “Liver with gallbladder weight” value [3] was 65 g. The Spleen weight [3] was 3 g, the “Terminal Body Weight” value [3] was 2919 g and the BAS [4] was 0.4%. The EOS [4] was 2.8%, the HCT [4] was 47% and the HGB [4] was 14 g/dL. For the same substance, the LUC [4] was 0.7%, the LYM [4] was 65% and the MCH [4] was 23 pg. It also gave an MCHC [4] of 29 g/dL, an MCV [4] of 80 fL and an MON [4] of 3.2%. The NEU [4] was 28%, the PLT [4] was 420 10^3/μL and the RBC [4] was 5.9e+06 µL⁻¹. For the same substance, the RCDW [4] was 12%, the Retic [4] was 1.2% and the WBC [4] was 10900 µL⁻¹. It also gave an MPV [4] of 7.5 fL, an ALB [5] of 4.1 g/dL and an ALP [5] of 1412 IU/L. It also gave an ALT [5] of 45 IU/L, an AST [5] of 75 IU/L and a BUN [5] of 26 mg/dL. For the same substance, the CREA [5] was 0.9 mg/dL, the GGT [5] was 80 IU/L and the GLO [5] was 2.9 g/dL. It also gave a GLU [5] of 91 mg/dL, an HDL [5] of 104 mg/dL and an LDL [5] of 54 mg/dL. For the same substance, the TBIL [5] was 0.2 mg/dL, the TG [5] was 30 mg/dL and the TP [5] was 7.0 g/dL.

— patent US11214803B2, “Modulators of YAP1 expression” (Ionis Pharmaceuticals, Inc., priority 2019, dated 2022)
